These are literature values, as cited in patent US20230201171A1, “COMPOSITIONS AND METHODS FOR PREVENTING POST-ERCP PANCREATITIS” (THE BOARD OF TRUSTEES OF THE LELAND STANFORD JUNIOR …, priority 2020, published 2023).

This series relates to post-ERCP pancreatitis (PEP). To be noted: rectal indomethacin alone, current standard of care.

In the case of `COc1ccc2c(c1)c(CC(=O)O)c(C)n2C(=O)c1ccc(Cl)cc1` [rectal indomethacin, indomethacin], the “effectiveness of PEP prophylaxis” value is reported as 35-40%.
